Data published in ChEMBL document CHEMBL1201862, “PubChem BioAssay data set” (2004).
Calls of active or inactive are those of the source.

Key:
[1] = molecular target: 1-phosphatidylinositol 4,5-bisphosphate phosphodiesterase gamma-1 (Homo sapiens, UniProt P19174); experiment: Counterscreen for inhibitors of phospholipase C isozymes (PLC-B3): Fluorescence-based biochemical high throughput dose response assay to identify inhibitors of phospholipase C isozymes (PLC-gamma1).
[2] = molecular target: T1, Dual specificity protein phosphatase 6 (Rattus norvegicus, UniProt Q64346); experiment: MKP-3 phosphatase inhibitors, primary screen, biochemical, rat enzyme, in vitro (AID 425)
T1 sequence (Q64346 whole entry): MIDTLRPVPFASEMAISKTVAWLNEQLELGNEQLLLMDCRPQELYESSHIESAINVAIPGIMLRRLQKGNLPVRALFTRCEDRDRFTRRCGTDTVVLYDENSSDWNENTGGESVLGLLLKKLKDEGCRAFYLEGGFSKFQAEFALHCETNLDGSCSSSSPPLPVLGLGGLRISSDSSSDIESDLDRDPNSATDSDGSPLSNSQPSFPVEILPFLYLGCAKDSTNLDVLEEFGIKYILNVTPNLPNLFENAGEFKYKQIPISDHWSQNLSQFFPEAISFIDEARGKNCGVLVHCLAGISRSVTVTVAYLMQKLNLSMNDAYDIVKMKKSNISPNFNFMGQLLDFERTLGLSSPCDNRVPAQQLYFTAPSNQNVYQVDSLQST

[3] = molecular target: Small ubiquitin-related modifier 1 (Homo sapiens, UniProt P63165); experiment: inhibitors of SUMO1 partner interactions, dose response, biochemical, FRET (AID 624383); type: functional; details: read-out: IC50_Mean
Sequence of Small ubiquitin-related modifier 1 (P63165 whole entry): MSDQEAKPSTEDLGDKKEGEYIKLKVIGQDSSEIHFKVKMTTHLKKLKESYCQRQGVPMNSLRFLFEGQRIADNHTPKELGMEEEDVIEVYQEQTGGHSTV

[4] = molecular target: NAD-dependent protein deacylase sirtuin-5, mitochondrial (Homo sapiens, UniProt Q9NXA8); experiment: SIRT5 desuccinylase inhibitors, dose response, biochemical, fluorescence imaging, cherry-pick, set 5 (AID 720591);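 note: desuccinylation of succinyl peptide AMC substrate read as fluorescence after trypsin release; potency of inhibitors that lower fluorescence and may act on trypsin instead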
Sequence of NAD-dependent protein deacylase sirtuin-5, mitochondrial (Q9NXA8 whole entry): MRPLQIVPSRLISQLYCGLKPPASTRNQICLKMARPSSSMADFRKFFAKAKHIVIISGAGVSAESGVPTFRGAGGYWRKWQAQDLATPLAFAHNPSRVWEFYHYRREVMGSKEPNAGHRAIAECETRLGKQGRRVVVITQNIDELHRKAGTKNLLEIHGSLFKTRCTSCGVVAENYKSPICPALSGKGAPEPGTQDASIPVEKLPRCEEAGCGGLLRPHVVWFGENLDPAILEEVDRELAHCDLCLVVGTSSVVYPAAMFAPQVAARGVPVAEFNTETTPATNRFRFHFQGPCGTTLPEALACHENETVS

[5] = inhibitors of firefly luciferase expression or activity, dose response, H4 neuroglioma cells, luminescence (AID 1990); type: functional, cell-based
[6] = test system: Streptococcus sp. 'group A'; experiment: growth inhibition of control SK(-) GAS strain, dose response, counter-screen for streptokinase expression inhibitor project, luminescence, kanamycin, BacTiterGlo, confirmation (AID 1900); type: functional, organism-based
[7] = Luminescence-based dose response cell-based high throughput screening assay for cytotoxic compounds using the IEC-6 intestinal epithelial cell line. [Related pubchem assays: 1858 (Summary AID.), 1825 (Counterscreen.), 1907 (Confirmation screen.)]; type: functional
Streptococcus = experiment: Group A Streptococcus viability loss, dose response, counter-screen for streptokinase expression inhibitor project, luminescence, BacTiterGlo (AID 1915); type: functional, organism-based;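 note: potency for reduction of bacterial viability or growth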
[8] = Counterscreen for AddAB inhibitors: absorbance-based bacterial cell-based high throughput dose response assay for inhibitors of bacterial viability. [Related pubchem assays (depositor defined):AID435030, AID449728, AID449731, AID488942, AID488955, AID488956]; type: functional
[9] = molecular target: T2, Sentrin-specific protease 7 (Homo sapiens, UniProt Q9BQF6); type: functional;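 note: Luminescence-based dose-response confirmation of ultra-high-throughput screening hits, measuring inhibition of SENP7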
T2 sequence (Q9BQF6 whole entry): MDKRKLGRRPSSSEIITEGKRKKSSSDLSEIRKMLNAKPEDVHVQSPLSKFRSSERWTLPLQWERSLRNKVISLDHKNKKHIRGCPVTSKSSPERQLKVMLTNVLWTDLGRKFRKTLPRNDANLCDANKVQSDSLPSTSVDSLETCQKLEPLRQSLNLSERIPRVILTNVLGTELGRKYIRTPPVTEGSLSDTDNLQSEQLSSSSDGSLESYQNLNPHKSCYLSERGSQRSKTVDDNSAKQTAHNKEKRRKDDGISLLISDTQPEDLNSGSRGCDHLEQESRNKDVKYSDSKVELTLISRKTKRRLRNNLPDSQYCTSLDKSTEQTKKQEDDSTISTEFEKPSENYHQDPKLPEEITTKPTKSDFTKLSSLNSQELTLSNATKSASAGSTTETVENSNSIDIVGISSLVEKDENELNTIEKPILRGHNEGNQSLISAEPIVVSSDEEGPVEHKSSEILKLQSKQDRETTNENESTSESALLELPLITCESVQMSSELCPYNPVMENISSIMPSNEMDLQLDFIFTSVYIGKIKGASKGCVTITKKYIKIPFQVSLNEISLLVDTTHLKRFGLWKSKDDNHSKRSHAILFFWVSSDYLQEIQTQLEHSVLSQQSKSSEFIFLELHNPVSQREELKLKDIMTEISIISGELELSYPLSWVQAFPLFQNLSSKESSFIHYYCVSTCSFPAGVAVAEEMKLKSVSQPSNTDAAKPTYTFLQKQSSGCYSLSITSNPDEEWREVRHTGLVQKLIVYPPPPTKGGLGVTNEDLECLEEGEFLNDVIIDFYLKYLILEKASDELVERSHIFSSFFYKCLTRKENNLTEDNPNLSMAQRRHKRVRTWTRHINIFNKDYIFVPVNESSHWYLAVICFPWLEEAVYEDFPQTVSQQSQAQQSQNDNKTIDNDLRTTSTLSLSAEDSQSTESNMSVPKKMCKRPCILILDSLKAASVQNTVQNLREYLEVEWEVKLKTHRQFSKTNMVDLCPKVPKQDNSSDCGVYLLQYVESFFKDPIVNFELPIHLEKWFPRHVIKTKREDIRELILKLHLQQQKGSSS

[10] = molecular target: T3, Tyrosine-protein phosphatase non-receptor type 22 (Homo sapiens, UniProt Q9Y2R2); type: functional;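 note: confirmatory dose-response retesting of primary uHTS hits against LYP; potency is for inhibition of phosphatase activity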
T3 sequence (Q9Y2R2 whole entry): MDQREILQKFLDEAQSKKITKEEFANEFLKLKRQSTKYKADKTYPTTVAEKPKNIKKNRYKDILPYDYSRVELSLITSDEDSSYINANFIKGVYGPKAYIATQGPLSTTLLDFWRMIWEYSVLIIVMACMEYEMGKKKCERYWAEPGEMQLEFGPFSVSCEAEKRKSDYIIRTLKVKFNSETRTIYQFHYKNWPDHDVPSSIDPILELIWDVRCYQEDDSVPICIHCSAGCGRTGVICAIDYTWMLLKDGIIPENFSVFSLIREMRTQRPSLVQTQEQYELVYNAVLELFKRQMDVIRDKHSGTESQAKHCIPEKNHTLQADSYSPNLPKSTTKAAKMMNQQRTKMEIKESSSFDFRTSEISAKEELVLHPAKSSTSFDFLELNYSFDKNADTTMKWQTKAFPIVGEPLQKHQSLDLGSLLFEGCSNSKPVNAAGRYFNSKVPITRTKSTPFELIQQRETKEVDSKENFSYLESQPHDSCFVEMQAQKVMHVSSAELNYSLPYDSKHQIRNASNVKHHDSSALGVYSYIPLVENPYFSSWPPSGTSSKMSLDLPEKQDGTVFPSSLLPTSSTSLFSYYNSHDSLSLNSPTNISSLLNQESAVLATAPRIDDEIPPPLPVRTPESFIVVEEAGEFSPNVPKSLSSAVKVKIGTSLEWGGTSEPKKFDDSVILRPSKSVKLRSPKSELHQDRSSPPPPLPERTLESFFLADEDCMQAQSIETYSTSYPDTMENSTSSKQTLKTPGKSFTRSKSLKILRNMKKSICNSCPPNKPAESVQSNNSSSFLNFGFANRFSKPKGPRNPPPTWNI

Sequence of 1-phosphatidylinositol 4,5-bisphosphate phosphodiesterase gamma-1 (P19174 whole entry): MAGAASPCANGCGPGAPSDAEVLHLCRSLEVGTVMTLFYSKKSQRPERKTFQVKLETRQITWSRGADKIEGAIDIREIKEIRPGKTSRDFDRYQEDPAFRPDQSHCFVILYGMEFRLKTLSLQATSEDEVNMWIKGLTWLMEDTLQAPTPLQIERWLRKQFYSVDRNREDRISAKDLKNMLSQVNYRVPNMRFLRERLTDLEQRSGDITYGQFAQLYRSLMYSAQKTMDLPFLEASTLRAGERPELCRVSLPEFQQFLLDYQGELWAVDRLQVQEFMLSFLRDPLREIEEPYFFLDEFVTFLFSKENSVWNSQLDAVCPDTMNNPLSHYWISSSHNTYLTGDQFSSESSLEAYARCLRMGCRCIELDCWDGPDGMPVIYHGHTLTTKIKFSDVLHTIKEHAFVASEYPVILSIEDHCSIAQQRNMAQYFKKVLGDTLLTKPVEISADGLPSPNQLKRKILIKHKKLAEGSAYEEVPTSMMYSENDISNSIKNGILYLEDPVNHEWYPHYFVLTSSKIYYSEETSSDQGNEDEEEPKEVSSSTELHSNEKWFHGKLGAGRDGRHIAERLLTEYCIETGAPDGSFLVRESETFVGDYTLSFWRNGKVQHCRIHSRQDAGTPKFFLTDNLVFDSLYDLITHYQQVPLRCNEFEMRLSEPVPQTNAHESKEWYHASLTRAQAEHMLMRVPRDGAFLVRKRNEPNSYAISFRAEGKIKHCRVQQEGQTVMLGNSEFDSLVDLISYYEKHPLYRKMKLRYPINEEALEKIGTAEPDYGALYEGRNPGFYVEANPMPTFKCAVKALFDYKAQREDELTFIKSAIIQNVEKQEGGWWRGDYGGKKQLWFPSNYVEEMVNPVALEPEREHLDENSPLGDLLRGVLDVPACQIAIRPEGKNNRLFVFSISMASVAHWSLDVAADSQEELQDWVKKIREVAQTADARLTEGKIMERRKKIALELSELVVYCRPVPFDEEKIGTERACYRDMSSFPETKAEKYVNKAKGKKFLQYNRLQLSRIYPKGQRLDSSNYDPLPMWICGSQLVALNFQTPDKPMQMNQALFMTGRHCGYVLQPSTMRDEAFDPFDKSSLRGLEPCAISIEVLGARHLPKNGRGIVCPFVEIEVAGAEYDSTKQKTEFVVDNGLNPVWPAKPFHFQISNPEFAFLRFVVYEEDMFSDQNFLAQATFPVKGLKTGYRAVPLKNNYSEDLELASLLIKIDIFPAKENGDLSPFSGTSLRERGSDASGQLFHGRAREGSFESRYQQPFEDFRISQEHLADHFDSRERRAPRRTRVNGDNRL

COC(=O)c1cc(C)nc2c1C(=O)C(=O)C=C2N1CCOCC1
IC50 [1]: 13.7 µM (inactive)

NS(=O)(=O)c1cc(C(=O)NC2CCSc3ccccc32)ccc1Cl (configuration not stated)
IC50 [2]: > 158 µM (not active) | IC50 [3]: 2.29 µM (active) | AC50 [4]: 6.65 µM (active)

O=C1c2ccccc2C(=O)c2[nH]c(O)nc21
EC50 [5]: 5.93 µM (active) | EC50 [6]: 4.23 µM (active) | IC50 [7]: 1.81 µM (active) | EC50 (Streptococcus): > 150 µM (not active) | IC50 [8]: > 119 µM (inactive)

CCOC(=O)C1=C(C)OC2(O)c3ccccc3C(=O)C12O (configuration not stated)
IC50 [9]: 3.27 µM (active)

N#Cc1c(N2CCCC2)nc(N)c2c(N)nc(N3CCCC3)cc12
IC50 [2]: 1.05 µM (active) | IC50 [10]: > 79.4 µM (inactive)
